Three compounds from patent US5439915A, “Pyrido[3,4-B]indole carboxamide derivatives as serotonergic agents” (American Home Products Corporation, priority 1994, dated 1995) can be followed below.

This test concerns the target T1, 5-HT1A serotonin receptor (Rattus norvegicus, UniProt P19327).
T1 construct: following the procedure of Hall et al., J. Neurochem; 44 1685 (1985); from tissue
T1 sequence (P19327 1-422): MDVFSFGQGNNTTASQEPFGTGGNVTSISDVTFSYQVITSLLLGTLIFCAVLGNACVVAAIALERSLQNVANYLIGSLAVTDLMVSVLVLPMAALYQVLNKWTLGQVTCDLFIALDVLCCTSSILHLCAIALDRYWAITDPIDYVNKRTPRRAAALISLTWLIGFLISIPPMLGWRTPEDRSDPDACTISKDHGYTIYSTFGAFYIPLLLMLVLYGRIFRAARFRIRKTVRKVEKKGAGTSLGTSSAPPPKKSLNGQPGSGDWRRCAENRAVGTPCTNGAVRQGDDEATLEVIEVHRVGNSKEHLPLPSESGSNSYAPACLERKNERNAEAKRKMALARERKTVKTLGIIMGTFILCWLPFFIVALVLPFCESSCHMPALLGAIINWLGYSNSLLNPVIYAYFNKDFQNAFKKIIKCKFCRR
The experiment in a line: displacement of [^3 H] 8-OHDPAT (dipropylaminotetralin) from the 5-HT1A serotonin receptor (Hall et al.). The settings on record: read-out: 5-HT1A Binding (IC50). The method, then:
High affinity for the serotonin 5-HT1A receptor for the compounds of this invention was established by testing them in accordance with the standard pharmacological test procedure in which the compound's ability to displace [^3 H] 8-OHDPAT (dipropylaminotetralin) from the 5-HT1A serotonin receptor was determined following the procedure of Hall et al., J. Neurochem. 44 1685 (1985).
As a reminder, the IC50 is the concentration needed to halve the response being measured. `C[C@H](CN1CCc2c([nH]c3ccccc23)C1)N(C(=O)C1CCCCC1)c1ccccn1` [Example 1]: the IC50 worked out at 34.9 nM.

As for `C[C@H](CN1CCc2c([nH]c3ccccc23)C1)N(C(=O)C12CC3CC(CC(C3)C1)C2)c1ccccn1` [Example 2], the IC50 was found to be 32.5 nM.

Turning to `C[C@H](CN1CCc2c(n(C)c3ccccc23)C1)N(C(=O)C1CCCCC1)c1ccccn1` [Example 3], the IC50 is 78.1 nM.
